Results reported in patent US20250144253A1, “3-((3-([1,1'-BIPHENYL]-3-YLMETHOXY)PHENOXY)METHYL)BENZONITRILE DERIVATIVES AND THE USE THEREOF” (HELMHOLTZ-ZENTRUM DRESDEN-ROSSENDORF E.V., priority 2021, published 2025).
≈ marks a conversion by molar mass, not a printed value.

Assays:
[1] = target: T1, PD-L1 (Homo sapiens, UniProt Q9NZQ7); experiment: Saturation binding assay of Cu-64 labelled radioligands on PC3 hPSCA PD-L1 overexpressing cell line; settings: PC3 hPSCA PD-L1 cells, n = 3; for Kd: 4° C., 90 min
T1 construct: expressed in transfected cells; host or cells: PC3 hPSCA PD-L1 overexpressing cell line
Description: Experiments were performed on a PC3 hPSCA PD-L1 overexpressing cell line in triplicates and three experiments were performed per compound, resulting in a 3×3 data set per compound (see FIGS. 1 to 3). The saturated, upper curve represents the total binding of the compound whereas the lower, linear curve represents the unspecific binding. The specific binding is represented as the difference between total and unspecific binding.
In the following the procedure for saturation binding assay is explained: The respective Cu-64 labeled compound is prepared freshly for each experiment. The cells with PD-L1 expression were prepared in 48-well plates. Three rows in the plates were designated for determination of total binding and one row for determination of the unspecific binding. For the latter, the cells are pretreated for 15 min with a 300 fold excess of a literature known PD-L1 inhibitor with high binding to PD-L1. […] Protein determination takes place at the next day and provides the Bmax value (total density of PD-L1 receptors on cell surface). Plotting and graphical interpretation provides curves and Kd-values from graph fitting.

[2] = Distribution coefficient log D at pH 7.4; assay type: physicochemical; settings: pH 7.4, n = 3
From the text: In general, the more negative the values of log D the better the water solubility.

[3] = Water solubility by adding water in 1 μl steps to 1 mg compound; assay type: physicochemical; settings: thermodynamic from solid
Description: The water solubility of compounds 85-90 was determined by weighing 1 mg of the cold compound in an Eppendorf-tube and adding water in 1 μl steps. The addition was performed until everything was dissolved. The value in mg/μl was converted to […].

[4] = tested on: PD-L1 tumor; experiment: PET imaging in PD-L1 overexpressing mouse xenograft model; assay type: in vivo
Description: Compound 119 was tested in a PD-L1 overexpressing mouse xenograft model. PET images were recorded 2 h, 15 h and 24 h post injection (see FIG. 4). The experiments were performed with compound 119 in duplicates (two mice for each timepoint). About 10 MBq of radiolabelled compound were injected intravenously in the tail vain of an alive mouse. At 2 hrs p.i. the first image was recorded. […] At 5 hrs p.i. the second image was recorded. High uptake in liver; high uptake in colon and intestine and increased uptake in PD-L1 tumor have been observed. At 24 hrs p.i. the third image was recorded. Moderate uptake in liver, low uptake in intestine and moderate uptake in the PD-L1 positive tumor has been observed.

[5] = tested on: PD-L1 tumor; experiment: as above; assay type: in vivo; settings: 5 hrs p.i. (second image)

T1 sequence (Q9NZQ7 19-290): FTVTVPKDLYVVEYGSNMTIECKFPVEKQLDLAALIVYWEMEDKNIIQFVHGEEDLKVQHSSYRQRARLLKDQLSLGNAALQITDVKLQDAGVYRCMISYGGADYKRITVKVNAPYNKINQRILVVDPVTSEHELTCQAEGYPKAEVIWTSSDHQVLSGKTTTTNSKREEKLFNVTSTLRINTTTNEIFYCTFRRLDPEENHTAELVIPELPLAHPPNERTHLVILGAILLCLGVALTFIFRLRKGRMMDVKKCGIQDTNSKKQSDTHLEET

Row | solubility [3] | SMILES | Kd [1] | Bmax (receptor density) [1] | Log D7.4 [2] | other results
1 | – | Cc1c(COc2cc(OCc3cncc(C#N)c3)c(CN(C)CC(=O)NCC(S(=O)(=O)O)S(=O)(=O)O)cc2Br)cccc1-c1cccc(OCc2cn(CCCN3CCN(C(=O)CN4CCN(CC(=O)O)CCN(CC(=O)O)CCN(CC(=O)O)CC4)CC3)nn2)c1C [Compound 122] | 135 ± 2.34 nM | 8.28 ± 0.13 pmol/mg | −3.48 ± 0.03 | –
2 | 115 mg/mL (≈ 109 mM) | Cc1c(COc2cc(OCc3cncc(S(C)(=O)=O)c3)c(CN(C)CC(=O)NCC(S(=O)(=O)O)S(=O)(=O)O)cc2Cl)cccc1-c1cccc(OCc2cn([C@@H]3O[C@H](CF)[C@@H](O)[C@H](O)[C@H]3O)nn2)c1C [Compound 90, 2-(2-((5-Chloro-4-((3′-((1-((2R,3R,4S,5S,6S)-6-(fluoromethyl)-3,4,5-trihydroxytetrahydro-2H-pyran-2-yl)-1H-1,2,3-triazol-4-yl)methoxy)-2,2′-dimethyl-[1,1′-biphenyl]-3-yl)methoxy)-2-((5-(methylsulfonyl)pyridin-3-yl)methoxy)benzyl)(methyl)amino)acetamido)ethane-1,1-disulfonic acid] | – | – | – | –
3 | 80 mg/mL (≈ 79.7 mM) | CN(CC(=O)NCC(S(=O)(=O)O)S(=O)(=O)O)Cc1cc(Cl)c(OCc2cccc(-c3cccc(OCc4cn(CCCF)nn4)c3)c2Br)cc1OCc1cncc(S(C)(=O)=O)c1 [Compound 85, 2-(2-((4-((2-Bromo-3′-((1-(3-fluoropropyl)-1H-1,2,3-triazol-4-yl)methoxy)-[1,1′-biphenyl]-3-yl)methoxy)-5-chloro-2-((5-(methylsulfonyl)pyridin-3-yl)methoxy)benzyl)(methyl)amino)acetamido)ethane-1,1-disulfonic acid] | – | – | – | –
4 | 110 mg/mL (≈ 99.2 mM) | CN(CC(=O)NCC(S(=O)(=O)O)S(=O)(=O)O)Cc1cc(Cl)c(OCc2cccc(-c3cccc(OCc4cn([C@@H]5O[C@H](CO)[C@@H](O)[C@H](O)[C@H]5F)nn4)c3)c2Br)cc1OCc1cncc(S(C)(=O)=O)c1 [Compound 86, 2-(2-((4-((2-Bromo-3′-((1-((2R,3R,4S,5S,6R)-3-fluoro-4,5-dihydroxy-6-(hydroxymethyl)tetrahydro-2H-pyran-2-yl)-1H-1,2,3-triazol-4-yl)methoxy)-[1,1′-biphenyl]-3-yl)methoxy)-5-chloro-2-((5-(methylsulfonyl)pyridin-3-yl)methoxy)benzyl)(methyl)amino)acetamido)ethane-1,1-disulfonic acid] | – | – | – | –
5 | – | Cc1c(COc2cc(OCc3cncc(S(C)(=O)=O)c3)c(CN[C@@H](CS(=O)(=O)O)C(=O)NCCS(=O)(=O)O)cc2Cl)cccc1-c1cccc(OCc2cn(CCCN3CCN(C(=O)[C@H](CS(=O)(=O)O)NC(=O)CC[C@H](C(=O)O)N4CCN(CC(=O)O)CCN(CC(=O)O)CC4)CC3)nn2)c1C [Compound 222] | – | – | −3.80 ± 0.02 | –
6 | – | CN(CC(=O)NCC(S(=O)(=O)O)S(=O)(=O)O)Cc1cc(Cl)c(OCc2cccc(-c3cccc(OCc4cn(CCOCCOCCN5CCN(C(=O)CN6CCN(CC(=O)O)CCN(CC(=O)O)CCN(CC(=O)O)CC6)CC5)nn4)c3)c2Br)cc1OCc1cncc(S(C)(=O)=O)c1 [Compound 117] | 357 ± 66.5 nM | 5.85 ± 1.14 (n = 6) pmol/mg | −3.47 ± 0.10 | –
7 | 120 mg/mL (≈ 113 mM) | Cc1c(COc2cc(OCc3cncc(S(C)(=O)=O)c3)c(CN(C)CC(=O)NCC(S(=O)(=O)O)S(=O)(=O)O)cc2Cl)cccc1-c1cccc(OCc2cn([C@@H]3O[C@H](CO)[C@@H](O)[C@H](O)[C@H]3F)nn2)c1C [Compound 89, 2-(2-((5-Chloro-4-((3′-((1-((2R,3R,4S,5S,6R)-3-fluoro-4,5-dihydroxy-6-(hydroxymethyl)tetrahydro-2H-pyran-2-yl)-1H-1,2,3-triazol-4-yl)methoxy)-2,2′-dimethyl-[1,1′-biphenyl]-3-yl)methoxy)-2-((5-(methylsulfonyl)pyridin-3-yl)methoxy)benzyl)(methyl)amino)acetamido)ethane-1,1-disulfonic acid] | – | – | – | –
8 | – | Cc1c(COc2cc(OCc3cncc(S(C)(=O)=O)c3)c(CN(C)CC(=O)NCC(S(=O)(=O)O)S(=O)(=O)O)cc2Cl)cccc1-c1cccc(OCc2cn(CCCN3CCN(C(=O)CN4CCN(CC(=O)O)CCN(CC(=O)O)CCN(CC(=O)O)CC4)CC3)nn2)c1C [Compound 119] | 59.9 ± 4.63 nM | 5.43 ± 0.46 pmol/mg | −3.14 ± 0.02 | circulation in the blood pool ([4]; 2 hrs p.i.): did still circulate in the blood pool; uptake in PD-L1 tumor ([4]; 2 hrs p.i.): low; uptake in bladder and intestines ([4]; 2 hrs p.i.): high; uptake in liver ([4]; 2 hrs p.i., about 10 MBq i.v.): Moderate; uptake in intestine ([4]; 24 hrs p.i.): low; uptake in liver ([4]; 24 hrs p.i.): Moderate; uptake in the PD-L1 positive tumor ([4]; 24 hrs p.i.): moderate; uptake in PD-L1 tumor [5]: increased; uptake in colon and intestine [5]: high; uptake in liver [5]: High
9 | – | Cc1c(COc2cc(OCc3cncc(S(C)(=O)=O)c3)c(CN(C)CC(=O)NCC(S(=O)(=O)O)S(=O)(=O)O)cc2Cl)cccc1-c1cccc(OCc2cn(CCOCCOCCN3CCN(C(=O)CN4CCN(CC(=O)O)CCN(CC(=O)O)CCN(CC(=O)O)CC4)CC3)nn2)c1C [Compound 120] | 71.3 ± 10.1 nM | 7.04 ± 0.42 pmol/mg | −3.50 ± 0.01 | –
10 | 85 mg/mL (≈ 89.1 mM) | Cc1c(COc2cc(OCc3cncc(S(C)(=O)=O)c3)c(CN(C)CC(=O)NCC(S(=O)(=O)O)S(=O)(=O)O)cc2Cl)cccc1-c1cccc(OCc2cn(CCCF)nn2)c1C [Compound 88, 2-(2-((5-Chloro-4-((3′-((1-(3-fluoropropyl)-1H-1,2,3-triazol-4-yl)methoxy)-2,2′-dimethyl-[1,1′-biphenyl]-3-yl)methoxy)-2-((5-(methylsulfonyl)pyridin-3-yl)methoxy)benzyl)(methyl)amino)acetamido)ethane-1,1-disulfonic acid] | – | – | – | –
11 | – | Cc1c(COc2cc(OCc3cncc(C#N)c3)c(CN(C)CC(=O)NCC(S(=O)(=O)O)S(=O)(=O)O)cc2I)cccc1-c1cccc(OCc2cn(CCCN3CCN(C(=O)CN4CCN(CC(=O)O)CCN(CC(=O)O)CCN(CC(=O)O)CC4)CC3)nn2)c1C [Compound 123] | 300 ± 20.6 nM | 49.6 ± 1.27 pmol/mg | −2.89 ± 0.02 | –
12 | – | CN(CC(=O)NCC(S(=O)(=O)O)S(=O)(=O)O)Cc1cc(Cl)c(OCc2cccc(-c3cccc(OCc4cn(CCCC5CCN(C(=O)CN6CCN(CC(=O)O)CCN(CC(=O)O)CCN(CC(=O)O)CC6)CC5)nn4)c3)c2Br)cc1OCc1cncc(S(C)(=O)=O)c1 [Compound 115] | 585 ± 39.6 nM | 11.7 ± 0.54 pmol/mg | −2.73 ± 0.04 | –
13 | – | Cc1c(COc2cc(OCc3cncc(S(C)(=O)=O)c3)c(CN(C)CC(=O)NCC(S(=O)(=O)O)S(=O)(=O)O)cc2Cl)cccc1-c1cccc(OCc2cn(CCCC3CCN(C(=O)CN4CCN(CC(=O)O)CCN(CC(=O)O)CCN(CC(=O)O)CC4)CC3)nn2)c1C [Compound 118] | 123 ± 11.7 nM | 13.5 ± 0.98 pmol/mg | −2.75 ± 0.04 | –
14 | – | Cc1c(COc2cc(OCc3cncc(C#N)c3)c(CN(C)CC(=O)NCC(S(=O)(=O)O)S(=O)(=O)O)cc2Cl)cccc1-c1cccc(OCc2cn(CCCN3CCN(C(=O)CN4CCN(CC(=O)O)CCN(CC(=O)O)CCN(CC(=O)O)CC4)CC3)nn2)c1C [Compound 121] | 128 ± 13.2 nM | 20.9 ± 2.17 pmol/mg | −2.99 ± 0.02 | –
15 | 115 mg/mL (≈ 104 mM) | CN(CC(=O)NCC(S(=O)(=O)O)S(=O)(=O)O)Cc1cc(Cl)c(OCc2cccc(-c3cccc(OCc4cn([C@@H]5O[C@H](CF)[C@@H](O)[C@H](O)[C@H]5O)nn4)c3)c2Br)cc1OCc1cncc(S(C)(=O)=O)c1 [Compound 87, 2-(2-((4-((2-Bromo-3′-((1-((2R,3R,4S,5S,6S)-6-(fluoromethyl)-3,4,5-trihydroxytetrahydro-2H-pyran-2-yl)-1H-1,2,3-triazol-4-yl)methoxy)-[1,1′-biphenyl]-3-yl)methoxy)-5-chloro-2-((5-(methylsulfonyl)pyridin-3-yl)methoxy)benzyl)(methyl)amino)acetamido)ethane-1,1-disulfonic acid] | – | – | – | –
